Here are results for 33 compounds from patent US12643905B2, “Spiropyrrolidine derived antiviral agents” (priority 2021, dated 2026).

One experiment addresses SARS-CoV-2 3CL-protease (Severe acute respiratory syndrome coronavirus 2, UniProt P0DTD1). Briefly: SARS-CoV-2 3C-like (3CL) protease fluorescence assay (FRET). The class given is biochemical. Particulars: recombinant SARS-CoV-2 3CL-protease 10 nM, 30 min preincubation, run in duplicate; read-out: FRET IC50.
Experiment [1] has as its system 229E human corona virus (hCoV). As to the kind of experiment: 229E live virus assay (CPE, ATPlite readout in MRC-5 cells). Particulars: Human coronavirus 229E, MRC5, 144 h, MOI 0.05, 6 days at 34° C., run in duplicate. The experiment is classed as cell-based, hCoV-229E. Background: In ATP-based viability assays light output follows the ATP content of the culture.

A value given as a limit tells only on which side of the number the result lay.

What is called IC50 is the concentration at which inhibition is half-maximal. Broadly, the EC50 is the concentration that produces a half-maximal response. Regarding `CC(C)(C)C[C@H](NC(=O)C(=O)Nc1ccc2cc(F)ccc2c1)C(=O)N1C[C@]2(C[C@H]1C#N)C(=O)Nc1ccccc12` [Example 85], the IC50 at SARS-CoV-2 3CL-protease was < 100 nM. Further, the EC50 in experiment [1] is < 100 nM.
`CCC(C)NC(=O)C(=O)N[C@@H](CC(C)(C)C)C(=O)N1C[C@]2(C[C@H]1C#N)C(=O)Nc1ccccc12` (stereo partly drawn) [Example 88]: the half-maximal inhibitory concentration (IC50) on SARS-CoV-2 3CL-protease is < 100 nM. For the same compound, the concentration for a half-maximal effect (EC50) in experiment [1] was < 100 nM.
As to `CC(C)(C)C[C@H](NC(=O)C(=O)Nc1cccc(F)c1)C(=O)N1C[C@]2(C[C@H]1C#N)C(=O)Nc1ccccc12` [Example 89], the concentration for half-maximal inhibition (IC50) at SARS-CoV-2 3CL-protease was < 100 nM. In experiment [1], the half-maximal effective concentration (EC50) was < 100 nM.
`CC(C)(C)C[C@H](NC(=O)C(=O)Nc1ccccc1F)C(=O)N1C[C@]2(C[C@H]1C#N)C(=O)Nc1ccccc12` [Example 90]: the IC50 at SARS-CoV-2 3CL-protease was < 100 nM. Also, the concentration giving a half-maximal response (EC50) in experiment [1] is < 100 nM.
On to `CC(C)(C)C[C@H](NC(=O)C(=O)Nc1c(F)cc(F)cc1F)C(=O)N1C[C@]2(C[C@H]1C#N)C(=O)Nc1ccccc12` [Example 92], for which, on SARS-CoV-2 3CL-protease, the 50% inhibitory concentration (IC50) was < 100 nM. Moreover, the EC50 in experiment [1] is < 100 nM.
Regarding `CC(C)(C)C[C@H](NC(=O)C(=O)Nc1ccc(F)cc1)C(=O)N1C[C@]2(C[C@H]1C#N)C(=O)Nc1ccccc12` [Example 93], the 50% inhibitory concentration (IC50) at SARS-CoV-2 3CL-protease is < 100 nM. The EC50 in experiment [1] is < 100 nM.
Consider `CC(C)(C)C[C@H](NC(=O)C(=O)Nc1ccc(F)cc1F)C(=O)N1C[C@]2(C[C@H]1C#N)C(=O)Nc1ccccc12` [Example 94], for which the 50% inhibitory concentration (IC50) at SARS-CoV-2 3CL-protease was < 100 nM. For the same compound, the EC50 in experiment [1] was < 100 nM.
For `CC(C)(C)C[C@H](NC(=O)C(=O)Nc1ccc2ccccc2c1)C(=O)N1C[C@]2(C[C@H]1C#N)C(=O)Nc1ccccc12` [Example 96], on SARS-CoV-2 3CL-protease, the IC50 is < 100 nM. In experiment [1], the EC50 is < 100 nM.
`CC(C)(C)C[C@H](NC(=O)C(=O)NC1CCCCC1)C(=O)N1C[C@]2(C[C@H]1C#N)C(=O)Nc1ccccc12` [Example 97]: at SARS-CoV-2 3CL-protease, the IC50 is < 100 nM. Further, in experiment [1], the EC50 is < 100 nM.
For `CC(C)(C)C[C@H](NC(=O)C(=O)NC1CCCC1)C(=O)N1C[C@]2(C[C@H]1C#N)C(=O)Nc1ccccc12` [Example 98], the IC50 on SARS-CoV-2 3CL-protease is < 100 nM. Further, the EC50 in experiment [1] is < 100 nM.
Consider `CC(C)C[C@H](NC(=O)C(=O)Nc1ccc(F)cc1)C(=O)N1C[C@]2(C[C@H]1C#N)C(=O)Nc1ccccc12` [Example 115], for which, at SARS-CoV-2 3CL-protease, the IC50 was < 100 nM. Besides, the EC50 in experiment [1] was < 100 nM.
On to `CC(C)[C@H](NC(=O)C(=O)N[C@@H](CC(C)(C)C)C(=O)N1C[C@]2(C[C@H]1C#N)C(=O)Nc1ccccc12)c1ccccc1` [Example 116], for which the 50% inhibitory concentration (IC50) on SARS-CoV-2 3CL-protease is < 100 nM. For the same compound, in experiment [1], the 50% effective concentration (EC50) is < 100 nM.
Regarding `CC(C)(C)C[C@H](NC(=O)C(=O)Nc1c(Cl)cccc1Cl)C(=O)N1C[C@]2(C[C@H]1C#N)C(=O)Nc1ccccc12` [Example 117], the concentration for half-maximal inhibition (IC50) on SARS-CoV-2 3CL-protease is < 100 nM. Further, in experiment [1], the EC50 was < 100 nM.
On to `CC(C)(C)C[C@H](NC(=O)C(=O)NC1(c2ccccc2)CC1)C(=O)N1C[C@]2(C[C@H]1C#N)C(=O)Nc1ccccc12` [Example 118], for which the IC50 on SARS-CoV-2 3CL-protease is < 100 nM. For the same compound, the EC50 in experiment [1] is < 100 nM.
Regarding `CC(C)(C)C[C@H](NC(=O)C(=O)NC1(c2ccccc2)CCC1)C(=O)N1C[C@]2(C[C@H]1C#N)C(=O)Nc1ccccc12` [Example 119], the concentration for half-maximal inhibition (IC50) on SARS-CoV-2 3CL-protease was < 100 nM. Moreover, the EC50 in experiment [1] was < 100 nM.
In the case of `CC(C)(C)C[C@H](NC(=O)C(=O)NC1CC(F)(F)C1)C(=O)N1C[C@]2(C[C@H]1C#N)C(=O)Nc1ccccc12` [Example 120], at SARS-CoV-2 3CL-protease, the 50% inhibitory concentration (IC50) is < 100 nM. Moreover, the EC50 in experiment [1] is < 100 nM.
On to `CC(C)(C)C[C@H](NC(=O)C(=O)Nc1c(C(F)(F)F)cccc1C(F)(F)F)C(=O)N1C[C@]2(C[C@H]1C#N)C(=O)Nc1ccccc12` [Example 138], for which, at SARS-CoV-2 3CL-protease, the half-inhibitory concentration (IC50) was < 100 nM. In experiment [1], the concentration giving a half-maximal response (EC50) was < 100 nM.
Take `CC(C)(C)C[C@H](NC(=O)C(=O)NCc1ccccc1)C(=O)N1C[C@]2(C[C@H]1C#N)C(=O)Nc1ccccc12` [Example 159]: at SARS-CoV-2 3CL-protease, the IC50 is < 100 nM. For the same compound, the half-maximal effective concentration (EC50) in experiment [1] was < 100 nM.
Turning to `C[C@@H](NC(=O)C(=O)N[C@@H](CC(C)(C)C)C(=O)N1C[C@]2(C[C@H]1C#N)C(=O)Nc1ccccc12)c1ccccc1` [Example 160], on SARS-CoV-2 3CL-protease, the half-maximal inhibitory concentration (IC50) was < 100 nM. In addition, the concentration giving a half-maximal response (EC50) in experiment [1] is < 100 nM.
With `C[C@H](NC(=O)C(=O)N[C@@H](CC(C)(C)C)C(=O)N1C[C@]2(C[C@H]1C#N)C(=O)Nc1ccccc12)c1ccccc1` [Example 161], the IC50 at SARS-CoV-2 3CL-protease was < 100 nM. In addition, the concentration for a half-maximal effect (EC50) in experiment [1] is < 100 nM.
Take `CC(C)(C)C[C@H](NC(=O)C(=O)c1ccccc1)C(=O)N1C[C@]2(C[C@H]1C#N)C(=O)Nc1ccccc12` [Example 179]: at SARS-CoV-2 3CL-protease, the half-maximal inhibitory concentration (IC50) is 100 to 1000 nM. Also, in experiment [1], the EC50 was in the range of 100 to 1000 nM.
As for `CC(C)(C)C[C@H](NC(=O)C(=O)C(C)(C)C)C(=O)N1C[C@]2(C[C@H]1C#N)C(=O)Nc1ccccc12` [Example 180], the IC50 on SARS-CoV-2 3CL-protease was > 1000 nM. Also, the EC50 in experiment [1] lay within 100 to 1000 nM.
The corresponding values for `CC(C)(C)C[C@H](NC(=O)C(=O)c1c[nH]c2ccccc12)C(=O)N1C[C@]2(C[C@H]1C#N)C(=O)Nc1ccccc12` [Example 181] are 100 to 1000 nM and 100 to 1000 nM.
In the same order, the values of `CC(C)(C)C[C@H](NC(=O)C(=O)c1ccccc1F)C(=O)N1C[C@]2(C[C@H]1C#N)C(=O)Nc1ccccc12` [Example 182] are 100 to 1000 nM and 100 to 1000 nM.
The corresponding values for `CC(C)(C)C[C@H](NC(=O)C(=O)C1CCCCC1)C(=O)N1C[C@]2(C[C@H]1C#N)C(=O)Nc1ccccc12` [Example 183] are < 100 nM and 100 to 1000 nM.
As to `[2H]C([2H])([2H])N(C(=O)C(=O)NCc1ccc(F)cc1F)[C@@H](CC1CC1)C(=O)N1C[C@]2(C[C@H]1C#N)C(=O)Nc1ccccc12` [Example 190], the half-maximal inhibitory concentration (IC50) at SARS-CoV-2 3CL-protease was < 100 nM. Further, in experiment [1], the EC50 was < 100 nM.
Consider `[2H]C([2H])([2H])N(C(=O)C(=O)NC1(c2ccc(F)cc2F)CC1)[C@@H](CC1CC1)C(=O)N1C[C@]2(C[C@H]1C#N)C(=O)Nc1ccccc12` [Example 191], for which the IC50 on SARS-CoV-2 3CL-protease was < 100 nM. Moreover, the EC50 in experiment [1] is < 100 nM.
For `[2H]C([2H])([2H])N(C(=O)C(=O)NCC1(C(F)(F)F)CC1)[C@@H](CC1CC1)C(=O)N1C[C@]2(C[C@H]1C#N)C(=O)Nc1ccccc12` [Example 192], on SARS-CoV-2 3CL-protease, the IC50 is < 100 nM. Moreover, the EC50 in experiment [1] is < 100 nM.
`[2H]C([2H])([2H])N(C(=O)C(=O)Nc1c(C(F)(F)F)cccc1C(F)(F)F)[C@@H](CC1CC1)C(=O)N1C[C@]2(C[C@H]1C#N)C(=O)Nc1ccccc12` [Example 193]: on SARS-CoV-2 3CL-protease, the concentration for half-maximal inhibition (IC50) was < 100 nM. Besides, the EC50 in experiment [1] was < 100 nM.
For the compound `CC(C)C[C@H]1C(=O)N2C[C@]3(C[C@H]2C#N)C(=O)Nc2ccc(cc23)CCCCNC(=O)C(=O)N1C` [Example 211], the IC50 at SARS-CoV-2 3CL-protease lay within 100 to 1000 nM. Moreover, the concentration for a half-maximal effect (EC50) in experiment [1] fell in the range of 100 to 1000 nM.
As to `CC(C)C[C@H]1C(=O)N2C[C@]3(C[C@H]2C#N)C(=O)Nc2ccc(cc23)CCCCN(Cc2ccccc2)C(=O)C(=O)N1C` [Example 212], the IC50 on SARS-CoV-2 3CL-protease is 100 to 1000 nM. Also, the EC50 in experiment [1] was in the range of 100 to 1000 nM.
Turning to `CC(C)C[C@H]1C(=O)N2C[C@]3(C[C@H]2C#N)C(=O)Nc2ccc(cc23)CCCCCNC(=O)C(=O)N1C` [Example 213], the half-inhibitory concentration (IC50) on SARS-CoV-2 3CL-protease is 100 to 1000 nM. Besides, the EC50 in experiment [1] lay within 100 to 1000 nM.
Take `CC(C)C[C@H]1C(=O)N2C[C@]3(C[C@H]2C#N)C(=O)Nc2ccc(cc23)/C=C\CCNC(=O)C(=O)N1C` [Example 214]: the IC50 on SARS-CoV-2 3CL-protease lay within 100 to 1000 nM. Besides, the concentration for a half-maximal effect (EC50) in experiment [1] was 100 to 1000 nM.
